Patent publication US9605002B2, “5,5-heteroaromatic anti-infective compounds” (priority 2012, dated 2017)
Values after ≈ are worked out from the molar mass of the structure shown.

Legend:
[1] = test system: M. tuberculosis (Mtb) H37Rv; test: Microplate Alamar Blue Assay (MABA), 7H12 media, replicating Mtb; type: cell-based; conditions: Mycobacterium tuberculosis, 7H12 media (no glycerol), read-out: 7H12 media: Replicating H37Rv Mtb: MIC 90
[2] = test system: M. tuberculosis (Mtb) H37Rv; test: Microplate Alamar Blue Assay (MABA), GAS media, replicating Mtb; type: cell-based, Mycobacterium tuberculosis; conditions: Mycobacterium tuberculosis; GAS (glycerol-alanine-salt) media, replicating H37Rv; read-out: GAS media: replicating H37Rv Mtb: MIC 90
[3] = test system: VERO kidney epithelial cells; test: VERO toxicity assessment; conditions: Chlorocebus sabaeus, Vero, read-out: VERO: IC50

| Structure (SMILES) | MIC90 [1] [µM] | MIC90 [2] [µM] | IC50 [3] [µM] |
| --- | --- | --- | --- |
| Cc1nc2sc(Cl)cn2c1C(=O)NCc1ccc2c(c1)OCC2 [ND-020062] | < 2 | < 2 | < 32 |
| CC1=Nn2c(nc(C)c2C(=O)NCc2ccc(Oc3ccc(F)cc3)cc2)C1 [ND-020050] | 2 to 10 (≈ 0.757 to 3.78 µg/mL) | < 2 | 20 to 32 |
| COc1ccc(COC(=O)c2c(C)nc3sc(C)cn23)cc1 [ND-010050] | 10 to 20 (≈ 3.16 to 6.33 µg/mL) | 2 to 10 | < 32 |
| Cc1nc2sc(Cl)cn2c1C(=O)NCc1ccc(N(C)C)cc1 [ND-020022] | < 2 | < 2 | < 32 |
| CCc1nc2sc(C)cn2c1C(=O)NCc1ccc2ccn(C)c2c1 [ND-020078] | < 2 | < 2 | < 32 |
| Cc1cn2c(C(=O)NCc3ccc4nc(-c5ccc(F)cc5)oc4c3)c(C)nc2s1 [ND-020066] | 2 to 10 (≈ 0.841 to 4.2 µg/mL) | < 2 | 20 to 32 |
| CCc1nc2sc(C)cn2c1C(=O)NCc1ccc(N2CCN(c3ccc(F)cc3)CC2)cc1 [ND-020048] | < 2 | < 2 | 10 to 20 |
| Cc1cn2c(C(=O)NCc3ccc(N4CC(C)OC(C)C4)cc3)c(C)nc2s1 (stereo not drawn) [ND-020074] | < 2 | < 2 | 20 to 32 |
| Cc1nn2c(C(=O)NCc3ccc(Oc4ccc(F)cc4)cc3)c(C)nc2o1 [ND-020051] | 2 to 10 (≈ 0.761 to 3.8 µg/mL) | 2 to 10 | 20 to 32 |
| Cc1cn2c(C(=O)NCc3ccccc3Cl)c(C)nc2s1 [ND-020001] | < 2 | < 2 | < 32 |
| Cc1nc2sc(C(F)(F)F)cn2c1C(=O)NCc1ccc2c(c1)OCC2 [ND-020063] | 2 to 10 (≈ 0.763 to 3.81 µg/mL) | < 2 | < 32 |
| Cc1cn2c(C(=O)NCc3cccc(N4CCOCC4)c3)c(C)nc2s1 [ND-020032] | 2 to 10 (≈ 0.741 to 3.7 µg/mL) | < 2 | < 32 |
| Cc1cn2c(C(=O)NCc3cccc(Oc4ccc(F)cc4)c3)c(C)nc2s1 [ND-020059] | < 2 | < 2 | 20 to 32 |
| CCOc1cccc(CNC(=O)c2c(C)nc3sc(C)cn23)c1 [ND-020029] | < 2 | < 2 | < 32 |
| CCc1nc2sc(C)cn2c1C(=O)NCc1ccc(N(C)C)cc1 [ND-020026] | < 2 | < 2 | < 32 |
| Cc1cn2c(C(=O)NCc3cccc(Oc4ccc(Cl)cc4)c3)c(C)nc2s1 [ND-020058] | < 2 | < 2 | 20 to 32 |
| Cc1cn2c(C(=O)NCCc3ccc(Cl)cc3)c(C)nc2s1 [ND-020081] | < 2 | < 2 | < 32 |
| Cc1cn2c(C(=O)Nc3ccc(-c4ccc(C(F)(F)F)cc4)nc3)c(C)nc2s1 [ND-020044] | 2 to 10 (≈ 0.833 to 4.16 µg/mL) | 2 to 10 | < 32 |
| Cc1cn2c(C(=O)NCc3ccc(N4CCOCC4)c(F)c3)c(C)nc2s1 [ND-020034] | 2 to 10 (≈ 0.777 to 3.88 µg/mL) | < 2 | < 32 |
| Cc1cn2c(C(=O)NCc3ccc(N(C)C)cc3)c(C)nc2s1 [ND-020020] | < 2 | < 2 | < 32 |
| Cc1nc2sc(F)cn2c1C(=O)NCc1ccc2c(c1)OCC2 [ND-020061] | < 2 | < 2 | < 32 |
| Cc1nc2sc(Cl)cn2c1C(=O)NCc1ccc(C(F)(F)F)cc1 [ND-020012] | < 2 | < 2 | < 32 |
| Cc1cn2c(C(=O)NCc3ccc4c(ccn4C)c3)c(C(F)(F)F)nc2s1 [ND-020080] | < 2 | < 2 | < 32 |
| CCOc1ccc(CNC(=O)c2c(C)nc3sc(C)cn23)cc1 [ND-020028] | < 2 | < 2 | < 32 |
| Cc1cn2c(C(=O)NCc3cc(Cl)cc(Cl)c3)c(C)nc2s1 [ND-020005] | < 2 | < 2 | < 32 |

| Structure (SMILES) | MIC90 [1] [µM] | MIC90 [2] [µM] | IC50 [3] [µM] |
| --- | --- | --- | --- |
| Cc1cn2c(C(=O)NCc3ccc(N4CCOCC4)c(Cl)c3)c(C)nc2s1 [ND-020035] | < 2 | < 2 | 20 to 32 |
| Cc1cn2c(C(=O)NCc3cccc(N4CC(C)OC(C)C4)c3)c(C)nc2s1 (stereo not drawn) [ND-020075] | < 2 | < 2 | < 32 |
| CCc1nc2sc(C)cn2c1C(=O)NCc1ccc(N2CCOCC2)c(F)c1 [ND-020037] | 2 to 10 (≈ 0.805 to 4.02 µg/mL) | < 2 | < 32 |
| Cc1cn2c(C(=O)NCc3ccc4ccn(C)c4c3)c(C)nc2s1 [ND-020077] | < 2 | < 2 | < 32 |
| Cc1cn2c(C(=O)NCc3ccc(F)c(N4CCOCC4)c3)c(C)nc2s1 [ND-020076] | < 2 | < 2 | < 32 |
| Cc1cn2c(C(=O)NCc3ccc(Oc4ccc(Cl)cc4)cc3)c(C)nc2s1 [ND-020060] | < 2 | < 2 | 10 to 20 |
| CCc1nc2sc(C)cn2c1C(=O)OC [ND-009743] | < 32 | < 32 | < 32 |
| Cc1cn2c(C(=O)NCc3cccc(C(F)(F)F)c3)c(C)nc2s1 [ND-020008] | < 2 | < 2 | < 32 |
| CCc1nc2sc(Cl)cn2c1C(=O)NCc1ccc(Oc2ccc(Cl)cc2)cc1 [ND-020053] | < 2 | < 2 | 20 to 32 |
| Cc1cn2c(C(=O)Nc3ccc(-c4ccc(C(F)(F)F)cc4)cc3)c(C)nc2s1 [ND-020042] | 2 to 10 (≈ 0.831 to 4.15 µg/mL) | < 2 | < 32 |
| CCc1nc2sc(C)cn2c1C(=O)NCc1ccc(N2CCC(c3ccc(F)cc3)CC2)cc1 [ND-020046] | < 2 | < 2 | 10 to 20 |
| Cc1nc2sc(C(F)(F)F)cn2c1C(=O)NCc1ccc(Cl)cc1 [ND-020015] | 2 to 10 (≈ 0.748 to 3.74 µg/mL) | < 2 | < 32 |
| CCc1nc2sc(C)cn2c1C(=O)NCc1ccc(Oc2ccc(C(F)(F)F)cc2)cc1 [ND-020054] | < 2 | < 2 | 20 to 32 |
| Cc1cn2c(C(=O)NCc3ncc(C(F)(F)F)cc3Cl)c(C)nc2s1 [ND-020016] | < 2 | < 2 | < 32 |
| CCc1nc2sc(C)cn2c1C(=O)NCc1ccc(-c2ccc(C(F)(F)F)cc2)cc1 [ND-020043] | 2 to 10 (≈ 0.887 to 4.43 µg/mL) | < 2 | < 32 |
| COc1cccc(CNC(=O)c2c(C)nc3sc(C)cn23)c1 [ND-009763] | < 2 | < 2 | < 32 |
| Cc1cn2c(C(=O)NCc3ccc(C(F)(F)F)cc3)c(C)nc2s1 [ND-020009] | < 2 | < 2 | < 32 |
| Cc1cn2c(C(=O)NCc3cccc(N4CCC(=O)CC4)c3)c(C)nc2s1 [ND-020072] | < 2 | < 2 | < 32 |
| Cc1cn2c(C(=O)NCc3ccc(-n4cnnc4)cc3)c(C)nc2s1 [ND-020065] | 2 to 10 (≈ 0.705 to 3.52 µg/mL) | 2 to 10 | 20 to 32 |
| Cc1cn2c(C(=O)NCc3ccc(F)cc3)c(C)nc2s1 [ND-020003] | 2 to 10 (≈ 0.607 to 3.03 µg/mL) | < 2 | < 32 |
| Cc1nn2c(C(=O)OCc3ccccc3)c(C)nc2s1 [ND-010475] | 10 to 20 (≈ 2.87 to 5.75 µg/mL) | < 2 | < 32 |
| Cc1nc2sc(Cl)cn2c1C(=O)Nc1ccc(Oc2ccc(C(F)(F)F)cc2)cc1 [ND-020041] | < 2 | < 2 | < 32 |
| Cc1nc2sc(C)c(C)n2c1C(=O)NCc1ccc(C(F)(F)F)cc1 [ND-020013] | 10 to 20 (≈ 3.67 to 7.35 µg/mL) | 2 to 10 | < 32 |
| CNc1ccc(CNC(=O)c2c(C)nc3sc(C)cn23)cc1 [ND-020021] | < 2 | < 2 | < 32 |
